Results on 2 molecules are retold here after patent publication EP4279068A1, “COMPOSITION COMPRISING A COMBINATION OF CAPSAICIN AND/OR PHENYLCAPSAICIN AND ASTAXANTHIN FOR THE PREVENTION AND TREATMENT OF INFLAMMATORY-BASED SKIN DISEASES, IN PARTICULAR ASSOCIATED WITH SKIN AGING” (Safi Medical Care s.r.l., priority 2022, dated 2023).

One test relates to HO-1. Description: HO-1 mRNA expression by quantitative real-time PCR in cultured human fibroblasts. The test is classed as cell-based. The conditions noted are these: human immortalized ATCC fibroblasts, peak at 15 µM. As for the experimental part: The human immortalized ATCC fibroblasts were exposed for 6 hrs to different concentrations of CAP, ASX, or of a combination of the two compounds (5, 10, 15, and 30 µM). […] ASX causes a dose-dependent increase in HO-1 mRNA, measured relative to the non-inducible HO-2 paralog gene, which peaks (approximately 6-fold) at 15 µM) and subsequently decreases to 30 µM. […] To confirm that the HO-1 gene expression measured at the mRNA level corresponded to an equivalent increase in the heme oxygenase activity, this activity was measured at the same doses of CAP and ASX 6 and 24 hours after administration. […] The results highlight the synergistic activity of CAP and ASX in the ability to activate HO-1 gene expression. In order to determine the best ratio between the two compounds we evaluated using the same experimental model, different proportion of the two compounds at the final concentration of 15 µM (CAP/ASX 1:2, 1:1, 2:1).

The next test deals with Nrf2. As to the kind of experiment: Nrf2 protein expression in nuclear extracts by Western blot. The test is classed as cell-based. The conditions noted are these: cultured human fibroblasts, final concentration 15 µM, 1 hr up to 12 hrs, Figure 3. As for the experimental part:
The cultured human fibroblasts were exposed to CAP, ASX or to a combination of the two compounds at the final concentration of 15 µM to evaluate the Nrf2 protein expression over time. […] The […] were washed twice with PBS 1X. The cells were then harvested in 1 ml of 1X PBS and centrifuged at 3000 rpm for 3 min at 4 °C. The cell pellet was carefully resuspended in […] of cold buffer containing 10 mM of HEPES (pH 7.9), 10 mM of KCl, 0.1 mM of EDTA, 0.1 mM of EGTA, 1 µM of DTT, and cocktail complete with protease inhibitors (Roche, Mannheim, Germany). The pellet was then incubated on ice for 15 min to allow the cells to swell. After this time, 15 µl of 10% NP-40 were added and the tube was mixed with vortex for 10 s. The homogenate was then centrifuged at 3000 rpm for 3 min at 4 °C and the nuclear pellet was resuspended in 30 µl of cold buffer consisting of 20 mM of HEPES (pH 7.9), 0.4 M of NaCl, 1 mM of EDTA, 1 mM of EGTA, 1 µM of DTT and protease inhibitors. The pellet was then incubated on ice for 15 min and vortexed for 10 - 15 s every 2 min. The nuclear extract was finally centrifuged at 13,000 rpm for 5 min at 4 °C. The supernatant containing the nuclear proteins was broken down by SDS-polyacrylamide gel and subjected to immunoblot analysis using anti-Nrf2 (1:500 dilution) and anti-Sp1 (1:500 dilution) antibodies.
In general terms: A western blot detects proteins with antibodies after separation by electrophoresis.

The test system of a further test is NF-kβ p65. As to the kind of experiment: NF-kβ p65 DNA-binding activity, TransAM p65 ELISA kit, in LPS-stimulated macrophages. The format is cell-based, rats. The conditions noted are these: 500 ng/ml LPS, 15 µm, 12 hours, Fig. 4. As for the experimental part:
(§1) To evaluate the ability of the synergistic composition of the invention to inhibit the NF-kβ activity in macrophages of rats, we used the DNA-binding activity assay of NF-kβ p65 by ELISA kit for TransAM p65 transcription factor (Active Motif, Carlsbad, CA). The cells were stimulated with 500 ng/ml of LPS in the presence and absence of 15 µm of CAP, 15 µm of ASX or a 15 µm combination of CAP + ASX, for 12 hours, according to the invention. Then, the DNA-binding activity of NF-kβ p65 was determined. 12 hours thereafter LPS stimulation markedly promoted the DNA-binding activity of NF-kβ p65 and the expression of proinflammatory cytokines IL-1β, IL-6, and TNF-α. […] Consistently, similar effects were shown in terms of cytokine expression (Figure 5). An immortalized macrophage cell line was used. The cells were pretreated or not for 1 hr with 15 µm of CAP, 15 µm of ASX or 15 µm of CAP+ASX, and then exposed to 500 ng/ml of LPS for another 24 hrs. IL-1b, IL-6 and TNF-a were detected by ELISA kit purchased from Abcam, Cambridge, (MA) USA. The data are expressed as mean ±SEM, n = 4; *p < 0.001 vs. LPS, **p < 0.001 vs. CAP or ASX alone.
For orientation: An ELISA detects its analyte on a solid surface through an enzyme-linked reagent.

For a further test, the system named is IL-1β, IL-6 and TNF-α. Description: Inflammatory cytokine secretion by ELISA in LPS-stimulated macrophages. The format is cell-based. The conditions noted are these: macrophages pretreated 1 hr with 15 µm, then 500 ng/ml LPS for 24 hrs, Figure 5. As for the experimental part: as §1

Regarding `CC1=C(/C=C/C(C)=C/C=C/C(C)=C/C=C/C=C(C)/C=C/C=C(C)/C=C/C2=C(C)C(=O)C(O)CC2(C)C)C(C)(C)CC(O)C1=O` (stereo not drawn) [ASX, 3,3'-dihydroxy-β-carotene-4,4'-dion], in the test on HO-1 (6 hrs exposure), the “increase in HO-1 mRNA, measured relative to the non-inducible HO-2 paralog gene” value is given as “approximately 6 fold”. The “Nrf2 protein expression in the nuclear extracts” value in the test on Nrf2 is “significantly increased”. The “DNA-binding activity of NF-kβ p65” value with NF-kβ p65 is “lower DNA-binding activity”. Moreover, the “LPS-stimulated cytokine secretion (IL-1β, IL-6 and TNF-α)” value in the test on IL-1β, IL-6 and TNF-α is recorded as “significantly reduced”.

With `COc1cc(CNC(=O)CCCC/C=C/C(C)C)ccc1O` [CAP, (E)-N-(4-hydroxy-3-methoxybenzyl) -8-methylnon-6-enamide], the “HO-1 gene expression (HO-1 mRNA), result in words” value with HO-1 (6 hrs, 5, 10, 15 and 30 µM) is listed as “slightly less active”. Also, in the test with Nrf2, the “Nrf2 protein expression in the nuclear extracts” value was “lower increase”. In the test with NF-kβ p65, the “DNA-binding activity of NF-kβ p65” value is reported as “lower DNA-binding activity”. In the test on IL-1β, IL-6 and TNF-α, the “LPS-stimulated cytokine secretion (IL-1β, IL-6 and TNF-α)” value is reported as “significantly reduced”.
